From patent US7803955B2, “Method for preparing 2,5,7,8-tetramethyl-2-(2′-carboxyethyl)-6-acetoxychroman-precursor- α-CEHC precursor” (Institut Neftekhimii I Kataliza Ran, priority 2005, dated 2010)

How the values were obtained:
[1] = ratio to α-tocopherol; cited from earlier work
[2] = unlike the known diuretics; cited from earlier work
[3] = various model oxidative reactions; compared with α-tocopherol, ascorbic acid, Trolox; cited from earlier work

CC(=O)Oc1c(C)c(C)c2c(c1C)CCC(C)(CCC[C@H](C)CCC[C@H](C)CCCC(C)C)O2 (stereo partly drawn) [α-tocopheryl acetate]
vitamin activity relative to non-acetylated α-tocopherol [1]: 1.47 times

Cc1c(O)cc2c(c1C)OC(C)(CCC(=O)O)CC2 (stereo not shown) [γ-CEHC]
excretion of sodium ions / potassium ions [2]: exclusively selectively promotes the excretion of sodium ions without affecting potassium ions

CC(=O)Oc1c(C)c(C)c2c(c1C)CCC(C)(CCC(=O)O)O2 (stereo not shown) [(V), 2,5,7,8-tetramethyl-2-(2′-carboxyethyl)-6-acetoxychroman]
melting point: 149 to 150 °C

Cc1c(C)c2c(c(C)c1O)CCC(C)(CCC(=O)O)O2 (stereo not shown) [acid (II), 2,5,7,8-tetramethyl-2-(2′-carboxyethyl)-6-hydroxychroman]
antioxidant activity in vitro [3]: high antioxidant properties comparable with such known preparations as α-tocopherol, ascorbic acid, and the cardioprotective agent Trolox
